Results taken from patent publication US20240217951A1, “PCSK9 INHIBITORS AND METHODS OF USE THEREOF” (AstraZeneca AB, priority 2022, published 2024).

Key:
[1] = target: T1, potassium ion channel hERG (human Ether-á-go-go-Related Gene) (Homo sapiens, UniProt Q12809); experiment: Assay 5 - hERG assay (SyncroPatch 384PE patch clamp, CHO cells); assay type: cell-based; conditions: geometric mean; CHO cells over-expressing hERG; read-out: Assay 5 (hERG Hu CHO IF EPh CR-Syncro) GMean IC50
T1 construct: expressed in transfected cells; host or cells: Chinese hamster ovary K1 (CHO)
T1 sequence (Q12809 whole entry): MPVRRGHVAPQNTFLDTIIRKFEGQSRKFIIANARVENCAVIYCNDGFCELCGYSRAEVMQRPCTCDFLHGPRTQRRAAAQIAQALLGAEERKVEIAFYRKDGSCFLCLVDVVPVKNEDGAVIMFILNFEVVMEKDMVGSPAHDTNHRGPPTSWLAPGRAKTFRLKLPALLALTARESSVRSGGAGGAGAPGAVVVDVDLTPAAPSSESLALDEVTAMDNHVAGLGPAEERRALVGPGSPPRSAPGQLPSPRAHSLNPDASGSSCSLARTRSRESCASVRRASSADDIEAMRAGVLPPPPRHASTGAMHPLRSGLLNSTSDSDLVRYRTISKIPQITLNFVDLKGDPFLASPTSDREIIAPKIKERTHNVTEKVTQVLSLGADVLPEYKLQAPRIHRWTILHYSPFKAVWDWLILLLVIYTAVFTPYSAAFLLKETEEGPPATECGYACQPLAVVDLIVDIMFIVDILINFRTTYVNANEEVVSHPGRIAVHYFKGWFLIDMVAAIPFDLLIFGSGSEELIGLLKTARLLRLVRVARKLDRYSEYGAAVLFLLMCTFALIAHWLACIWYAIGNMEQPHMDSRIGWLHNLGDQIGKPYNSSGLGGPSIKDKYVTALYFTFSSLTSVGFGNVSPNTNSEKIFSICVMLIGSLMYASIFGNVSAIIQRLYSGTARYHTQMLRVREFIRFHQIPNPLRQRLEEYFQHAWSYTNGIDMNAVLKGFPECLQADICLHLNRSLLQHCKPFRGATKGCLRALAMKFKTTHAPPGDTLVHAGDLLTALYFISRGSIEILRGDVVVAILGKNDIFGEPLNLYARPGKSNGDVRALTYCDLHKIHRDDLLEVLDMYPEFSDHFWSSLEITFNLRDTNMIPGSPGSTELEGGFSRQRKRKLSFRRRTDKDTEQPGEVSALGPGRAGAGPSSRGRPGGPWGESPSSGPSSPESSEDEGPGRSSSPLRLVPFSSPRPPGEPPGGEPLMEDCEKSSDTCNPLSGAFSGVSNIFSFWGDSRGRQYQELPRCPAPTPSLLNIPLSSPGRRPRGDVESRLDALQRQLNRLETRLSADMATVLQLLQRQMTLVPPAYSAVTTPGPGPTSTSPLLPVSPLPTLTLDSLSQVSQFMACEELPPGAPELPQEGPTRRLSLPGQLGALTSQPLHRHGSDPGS
Experimental: Assay 5—hERG Assay (Human Ether-á-go-go-Related Gene)
This assay (human Ether-á-go-go-Related Gene) measures activity of the compounds at the potassium ion channel hERG (human Ether-á-go-go-Related Gene).
Experiments were performed on the SyncroPatch 384PE high throughput patch clamp platform at room temperature and medium resistance chips with 4 patch holes per site. Chinese hamster ovary K1 (CHO) cell lines over-expressing the ion channel of choice (hERG) were used in assay-ready format and kept in liquid nitrogen or were used from live culture. Cells were either thawed and diluted in HBSS or were detached from flasks and resuspended in HBSS. HBSS comprised 140 mM NaCl, 4 mM KCl, 10 mM HEPES and 5 mM Glucose (pH7.4). The internal patch clamp solution was KF 120 mM, KCl 20 mM, HEPES 10 mM, EGTA 10 mM, and 25 PM Escin (pH 7.2). After the sealing process was complete, the external solution was exchanged for external patch clamp solution comprising NaCl 80 mM, KCl 4 mM, HEPES 10 mM, CaCl2 2 mM, MgCl2 1 mM, glucose 5 mM, and NMDG 60 mM (pH 7.4). All solutions were stored at room temperature, except Escin, which was stored at 4° C. All test compounds were dispensed in greiner-bio 384 well plates and tested in a 6 point cumulative assay (final DMSO concentration 0.33%). Only wells that passed previously agreed acceptance criteria for this platform were used in this analysis (30 MegaOhm seal resistance, Z prime >0.4 and current size >0.2 nA).

[2] = target: GSK3β (Glycogen synthase kinase-3 beta) (Homo sapiens, UniProt P49841); experiment: Assay 6 - GSK3β assay (ThermoFisher Z-Lyte); assay type: biochemical; conditions: geometric mean; ATP Conc: 10 μM; read-out: Assay 6 (GSK3β FRET-Z-Lyte CR) GMean IC50 (μM) ATP Conc: 10
GSK3β (Glycogen synthase kinase-3 beta), sequence (P49841 whole entry): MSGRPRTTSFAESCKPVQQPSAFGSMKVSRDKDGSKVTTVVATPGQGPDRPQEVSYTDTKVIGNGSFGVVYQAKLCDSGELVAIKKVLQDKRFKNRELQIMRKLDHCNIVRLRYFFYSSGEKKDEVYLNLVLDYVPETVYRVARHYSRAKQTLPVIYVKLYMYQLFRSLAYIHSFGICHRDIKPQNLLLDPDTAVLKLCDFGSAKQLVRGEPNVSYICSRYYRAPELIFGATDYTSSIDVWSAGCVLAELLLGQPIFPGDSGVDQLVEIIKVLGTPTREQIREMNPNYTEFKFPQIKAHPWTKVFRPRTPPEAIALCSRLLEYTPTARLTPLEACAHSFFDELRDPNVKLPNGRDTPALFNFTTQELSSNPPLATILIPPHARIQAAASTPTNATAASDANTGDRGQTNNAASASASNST
Experimental: Assay 6—GSK3β Assay (ThermoFisher Assay)
This assay measures the activity of the compounds at GSK3β (Glycogen synthase kinase-3 beta).
The test compounds were screened in 1% DMSO (final) in the well. For 10 point titrations, 3-fold serial dilutions are conducted from the starting concentration of 10 μM.
Bar-coded Corning, low volume NBS, black 384-well plate • 1. 2.5 μL—4× Test Compound or 100 nL 100× plus 2.4 μL kinase buffer • 2. 5 μL—2× Peptide/Kinase Mixture • 3. 2.5 μL—4×ATP Solution • 4. 30-second plate shake • 5. 60-minute Kinase Reaction incubation at room temperature • 6. 5 μL—Development Reagent Solution • 7. 30-second plate shake • 8. 60-minute Development Reaction incubation at room temperature • 9. Read on fluorescence plate reader and analyse the data
In step 2, the 2×GSK3β (GSK3 beta)/Ser/Thr (Glycogen synthase kinase-3 beta/Serine/Threonine) 09 mixture is prepared in 50 mM HEPES (4-(2-hydroxyethyl)-1-piperazineethanesulfonic acid) pH 7.5, 0.01% BRIJ-35, 10 mM MgCl2, 1 mM EGTA (egtazic acid). The final 10 μL Kinase Reaction consists of 0.22-0.92 ng GSK3β (GSK3 beta) and 2 μM Ser/Thr 09 in 50 mM HEPES pH 7.5, 0.01% BRIJ-35, 10 mM MgCl2, 1 mM EGTA.
In step 3 the ATP Solution is diluted to a 4× working concentration in Kinase Buffer (50 mM HEPES pH 7.5, 0.01% BRIJ-35, 10 mM MgCl2, 1 mM EGTA).
In Step 6 the Development Reagent is diluted 1:512 in Development Buffer (10× Novel PKC Lipid Mix: 2 mg/mL Phosphatidyl Serine, 0.2 mg/mL DAG in 20 mM HEPES, pH 7.4, 0.3% CHAPS).
SelectScreen® Kinase Profiling Service uses XLfit from IDBS. The dose response curve is curve fit to model number 205 (sigmoidal dose-response model).

PCSK9 [3] = target: T2, PCSK9 (Homo sapiens, UniProt Q8NBP7, G670E/V474I); experiment: biochemical
T2 sequence (Q8NBP7 with tags, fused parts or gaps V474I/G670E): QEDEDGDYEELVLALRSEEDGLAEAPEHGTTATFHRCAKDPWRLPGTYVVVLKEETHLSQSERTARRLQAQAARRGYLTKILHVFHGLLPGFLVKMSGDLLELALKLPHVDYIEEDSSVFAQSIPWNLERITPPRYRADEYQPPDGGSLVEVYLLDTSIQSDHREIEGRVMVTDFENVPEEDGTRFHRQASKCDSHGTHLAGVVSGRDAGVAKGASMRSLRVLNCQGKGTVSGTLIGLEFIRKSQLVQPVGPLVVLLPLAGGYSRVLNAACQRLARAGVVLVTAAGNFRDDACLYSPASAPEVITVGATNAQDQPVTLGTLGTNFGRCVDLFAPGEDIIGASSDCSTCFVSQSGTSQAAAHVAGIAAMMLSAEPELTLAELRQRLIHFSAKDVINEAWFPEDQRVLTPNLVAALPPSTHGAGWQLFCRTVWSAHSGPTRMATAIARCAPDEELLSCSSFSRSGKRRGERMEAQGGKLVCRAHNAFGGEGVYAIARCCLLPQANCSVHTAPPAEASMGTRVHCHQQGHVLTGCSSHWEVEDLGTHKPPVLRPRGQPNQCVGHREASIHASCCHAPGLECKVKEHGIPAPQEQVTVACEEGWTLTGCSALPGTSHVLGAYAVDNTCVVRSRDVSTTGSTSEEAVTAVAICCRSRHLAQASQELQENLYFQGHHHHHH

PCSK9 [4] = target: T2, PCSK9; experiment: Assay 3 - PCSK9 LDL-C uptake assay in HepG2 cells; assay type: cell-based; set-up: TEV cleavage site (C); His6 (C); host or cells: added to HepG2 cells (ATCC #HB-8065); conditions: 125 nM PCSK9, pHrodo Red-LDL, read-out: Assay 3 LDL uptake potency
From the text: Assay 3—PCSK9 LDL-C Uptake Assay
This assay measures for PCSK9 antagonist activity based on a test compound's capacity to restore LDL-C-uptake in HepG2 cells. The assay is based on exogenous PCSK9 and LDL-C complexed with a pH-sensitive dye. Outside the cells, at neutral pH, the pHrodo Red-LDL is dimly fluorescent but upon LDLR mediated endocytosis it fluoresces brightly. PCSK9 traffics the LDLR to intracellular degradation and reduces uptake of LDL-C. Inhibition of PCSK9 reduces LDLR degradation and the increased LDL-C uptake is quantified by fluorescence microscopy.
Preparation of Assay Reagents
Cell medium: MEM supplemented with 10% FBS, 1×NEAA and Sodium Pyruvate Assay medium: OptiMem supplemented with penicillin/streptomycin
Cells: HepG2 (ATCC #HB-8065)
Step by Step Protocol for Running the Assay:
• 1. Cryopreserved HepG2 cells were thawed in assay medium and centrifuged for 5 min at 250 g. Supernatant was discarded and the cell pellet resuspended in cell medium and counted with a Nucleocounter. Cells were again centrifuged 5 min at 250 g and the pellet was resuspended to 500000 cells/mL in assay medium. • 2. 20 μL of above cell mix was dispensed into black pclear TC treated 384 well plates with Multidrop Combi and left at room temperature for 20 minutes. • 3. Plates were incubated at 37° C., 5% CO2 for 24 h
• 1. Test compounds were prepared in concentration response in DMSO with a half-log dilution factor in DMSO in Echo 384 LDV plates starting at 10 mM. • 2. 30 nL of above test compounds were dispensed with Echo 655 to cells for a top concentration of 10 μM • 3. 10 μL PCSK9 in assay medium was dispensed to cells with Multidrop Combi for 125 nM final concentration in the wells. • 4. Plates were incubated at 37° C., 5% CO2 for 24 h
• 1. 10 μL pHrodo Red-LDL in assay medium was dispensed to cells with Multidrop Combi for 6 μg/mL • 2. Plates were incubated at 37° C., 5% CO2 and imaged with the Incucyte S3 after 4 h and 24 h
Image data was processed using Incucyte 2021, a software to identify cells and red fluorescent intensity. Screener was used to further process data. Data was normalized as % effect of the signal between median values of the on-plate controls of DMSO and 100 nM Evolocumab according to the formula % effect=−100*(x−DMSO)/(Evolocumab−DMSO) where x equals the measured signal. Concentration response data of the normalized values were fitted using a four-parameter logistic fit.

SMILES | IC50 [1] [nM] | IC50 [2] [µM] | IC50 (PCSK9 [3]) [nM] | EC50 (PCSK9 [4]) [nM]
N#Cc1cccn(-c2ccc(N[C@H]3CC[C@H](Nc4cnc(C5CC5)cn4)C3)nc2)c1=O [Example 104, 6′-(((1S,3S)-3-((5-Cyclopropylpyrazin-2-yl)amino)cyclopentyl)amino)-2-oxo-2H-[1,3′-bipyridine]-3-carbonitrile] | 24200 | > 10 | 5.8 | 500
Cc1ncc(N[C@H]2CC[C@H](Nc3ccc(-n4cccc(Cl)c4=O)cn3)C2)nc1C [Example 19, 3-Chloro-6′-(((1S,3S)-3-((5,6-dimethylpyrazin-2-yl)amino)cyclopentyl)amino)-2H-[1,3′-bipyridin]-2-one] | 24600 | > 10 | 5.3 | 100
COc1cccn(-c2ccc(N[C@H]3CC[C@H](Nc4cnc(C)cn4)C3)nc2)c1=O (racemic) [Example 170, rel-3-Methoxy-6′-(((1R,3R)-3-((5-methylpyrazin-2-yl)amino)cyclopentyl)amino)-2H-[1,3′-bipyridin]-2-one] | > 40100 | 7 | 11 | 200
Cc1cnc(N[C@H]2CC[C@H](Nc3ccc(-n4cc(-c5cn[nH]c5)ccc4=O)cn3)C2)cn1 [Example 207, 6′-(((1S,3S)-3-((5-Methylpyrazin-2-yl)amino)cyclopentyl)amino)-5-(1H-pyrazol-4-yl)-2H-[1,3′-bipyridin]-2-one] | > 40100 | > 10 | 8.6 | 400
COc1cccn(-c2ccc(N[C@H]3CC[C@H](Nc4cnc(C)cn4)C3)nc2)c1=O (relative stereo) [Example 172, rel-3-Methoxy-6′-(((1R,3R)-3-((5-methylpyrazin-2-yl)amino)cyclopentyl)amino)-2H-[1,3′-bipyridin]-2-one] | > 40100 | 3.7 | 5.3 | 100
Cn1c(=O)n(-c2ccc(N[C@H]3CC[C@H](Nc4cnc(C5CC5)cn4)C3)nc2)c2ncccc21 [Example 105, 3-(6-(((1S,3S)-3-((5-Cyclopropylpyrazin-2-yl)amino)cyclopentyl)amino)pyridin-3-yl)-1-methyl-1,3-dihydro-2H-imidazo[4,5-b]pyridin-2-one] | 20400 | > 10 | 6.4 | 800
O=c1ccc2cccnc2n1-c1ccc(N[C@H]2CC[C@H](Nc3cnc(Cl)cn3)C2)nc1 [Example 34, 1-(6-(((1S,3S)-3-((5-Chloropyrazin-2-yl)amino)cyclopentyl)amino)pyridin-3-yl)-1,8-naphthyridin-2 (1H)-one] | 15400 | > 10 | 5.1 | 100
Cc1ncc(N[C@H]2CC[C@H](Nc3ccc(-n4cc(-c5nnn[nH]5)ccc4=O)cn3)C2)nc1C [Example 176, 6′-(((1S,3S)-3-((5,6-Dimethylpyrazin-2-yl)amino)cyclopentyl)amino)-5-(1H-tetrazol-5-yl)-2H-[1,3′-bipyridin]-2-one] | > 40100 | > 10 | 12 | 100
COc1cccn(-c2ccc(N[C@H]3CC[C@H](Nc4cnc(Cl)cn4)C3)nc2)c1=O [Example 13, 6′-(((1S,3S)-3-((5-Chloropyrazin-2-yl)amino)cyclopentyl)amino)-3-methoxy-2H-[1,3′-bipyridin]-2-one] | 35600 | > 10 | 4 | 200
N#Cc1cccn(-c2ccc(N[C@H]3CC[C@H](Nc4cnc(Cl)cn4)C3)nc2)c1=O [Example 101, 6′-(((1S,3S)-3-((5-Chloropyrazin-2-yl)amino)cyclopentyl)amino)-2-oxo-2H-[1,3′-bipyridine]-3-carbonitrile] | 19400 | > 10 | 5.5 | 600
Cc1cnc(N[C@H]2CC[C@H](Nc3ccc(-n4cccc(-c5cn[nH]c5)c4=O)cn3)C2)cn1 [Example 204, 6′-(((1S,3S)-3-((5-Methylpyrazin-2-yl)amino)cyclopentyl)amino)-3-(1H-pyrazol-4-yl)-2H-[1,3′-bipyridin]-2-one] | > 40100 | > 10 | 3.5 | 400
N#Cc1ccc(=O)n(-c2ccc(N[C@H]3CC[C@H](Nc4cnc(OC(F)F)cn4)C3)nc2)c1 [Example 89, 6′-(((1S,3S)-3-((5-(Difluoromethoxy)pyrazin-2-yl)amino)cyclopentyl)amino)-2-oxo-2H-[1,3′-bipyridine]-5-carbonitrile] | 6800 | > 10 | 121 | 
O=c1ccc(-c2nnn[nH]2)cn1-c1ccc(N[C@H]2CC[C@H](Nc3cnc(Cl)cn3)C2)nc1 [Example 179, 6′-(((1S,3S)-3-((5-Chloropyrazin-2-yl)amino)cyclopentyl)amino)-5-(1H-tetrazol-5-yl)-2H-[1,3′-bipyridin]-2-one] |  | 6.9 | 4.7 | 100
O=c1[nH]ccnc1N[C@H]1CC[C@H](Nc2ccc(-n3ccccc3=O)cn2)C1 [Example 252, 6′-(((1S,3S)-3-((3-Oxo-3,4-dihydropyrazin-2-yl)amino)cyclopentyl)amino)-2H-[1,3′-bipyridin]-2-one] | > 40100 | > 10 | 2580 | 
